Experimental data taken from the NIST ThermoML archive (doi:10.1021/je8001128).
± gives the expanded uncertainty stated by the source.

How the values were obtained:
[1] = 298.15 K; 101 kPa; Liquid
[2] = wn = mass fraction of the nth substance listed; settings: 298.15 K, 101 kPa, Liquid

## COC(C)=O [methyl ethanoate]
[1]
  viscosity: 0.4 ± 0.1 mPa·s

## CC(C)=O [acetone] + CCCCn1cc[n+](C)c1.F[B-](F)(F)F
[2]; w2 = 0
  mass density: 785.36 ± 0.81 kg/m3
  viscosity: 0.3 ± 0.1 mPa·s

## CCCCn1cc[n+](C)c1.F[B-](F)(F)F [1-butyl-3-methylimidazolium tetrafluoroborate] + CC(C)=O
[2]; w1 = 0.1724
  mass density: 846.15 ± 0.96 kg/m3
  viscosity: 0.5 ± 0.1 mPa·s
[2]; w1 = 0.3033
  mass density: 894.39 ± 1.2 kg/m3
  viscosity: 0.7 ± 0.1 mPa·s
[2]; w1 = 0.495
  mass density: 970.29 ± 2 kg/m3
  viscosity: 1.5 ± 0.1 mPa·s
[2]; w1 = 0.6276
  mass density: 1026.98 ± 3 kg/m3
  viscosity: 3 ± 0.1 mPa·s
[2]; w1 = 0.677
  mass density: 1048.91 ± 3.5 kg/m3
  viscosity: 4 ± 0.1 mPa·s
[2]; w1 = 0.7197
  mass density: 1068.29 ± 4 kg/m3
  viscosity: 5.2 ± 0.2 mPa·s
[2]; w1 = 0.7603
  mass density: 1086.16 ± 4.4 kg/m3
  viscosity: 6.9 ± 0.2 mPa·s
[2]; w1 = 0.7933
  mass density: 1102.46 ± 4.9 kg/m3
  viscosity: 9 ± 0.3 mPa·s
[2]; w1 = 0.8267
  mass density: 1118.43 ± 5.4 kg/m3
  viscosity: 12 ± 0.3 mPa·s
[2]; w1 = 0.8536
  mass density: 1131.38 ± 5.8 kg/m3
  viscosity: 15.1 ± 0.4 mPa·s
[2]; w1 = 0.9024
  mass density: 1155.29 ± 6.6 kg/m3
  viscosity: 25.5 ± 0.7 mPa·s
[2]; w1 = 0.939
  mass density: 1174.32 ± 7.2 kg/m3
  viscosity: 40.1 ± 1.2 mPa·s
[2]; w1 = 0.9707
  mass density: 1193.01 ± 7.9 kg/m3
  viscosity: 64.7 ± 2 mPa·s
[2]; w1 = 1
  mass density: 1211.05 ± 8.6 kg/m3
  viscosity: 110.3 ± 6.6 mPa·s

## CCOC=O [ethyl methanoate]
[1]
  viscosity: 0.4 ± 0.1 mPa·s

## CCCCn1cc[n+](C)c1.F[B-](F)(F)F [1-butyl-3-methylimidazolium tetrafluoroborate] + CCOC=O
[2]; w1 = 1
  mass density: 1211.05 ± 8.6 kg/m3
  viscosity: 110.3 ± 6.6 mPa·s

## CC(C)=O [acetone]
[1]
  mass density: 785.36 ± 0.81 kg/m3
  viscosity: 0.3 ± 0.1 mPa·s

## CCCCn1cc[n+](C)c1.F[B-](F)(F)F [1-butyl-3-methylimidazolium tetrafluoroborate]
[1]
  mass density: 1211.05 ± 8.6 kg/m3
  viscosity: 110.3 ± 6.6 mPa·s

## CCCCn1cc[n+](C)c1.F[B-](F)(F)F [1-butyl-3-methylimidazolium tetrafluoroborate] + COC=O
[2]; w1 = 1
  mass density: 1211.05 ± 8.6 kg/m3
  viscosity: 110.3 ± 6.6 mPa·s

## COC=O [methyl methanoate]
[1]
  mass density: 964.78 ± 0.45 kg/m3
  viscosity: 0.3 ± 0.1 mPa·s

## COC=O [methyl methanoate] + CCCCn1cc[n+](C)c1.F[B-](F)(F)F
[2]; w2 = 0
  mass density: 964.78 ± 0.45 kg/m3
  viscosity: 0.3 ± 0.1 mPa·s
[2]; w2 = 0.1653
  mass density: 1011.72 ± 0.78 kg/m3
  viscosity: 0.5 ± 0.1 mPa·s
[2]; w2 = 0.2974
  mass density: 1045.55 ± 1.4 kg/m3
  viscosity: 0.9 ± 0.1 mPa·s
[2]; w2 = 0.4895
  mass density: 1091.4 ± 2.5 kg/m3
  viscosity: 1.9 ± 0.1 mPa·s
[2]; w2 = 0.6165
  mass density: 1121.47 ± 3.6 kg/m3
  viscosity: 3.5 ± 0.1 mPa·s
[2]; w2 = 0.6592
  mass density: 1131.2 ± 4 kg/m3
  viscosity: 4.4 ± 0.1 mPa·s
[2]; w2 = 0.7145
  mass density: 1143.64 ± 4.6 kg/m3
  viscosity: 6.3 ± 0.2 mPa·s
[2]; w2 = 0.7547
  mass density: 1152.73 ± 5.1 kg/m3
  viscosity: 8.2 ± 0.2 mPa·s
[2]; w2 = 0.7899
  mass density: 1160.43 ± 5.5 kg/m3
  viscosity: 10.6 ± 0.3 mPa·s
[2]; w2 = 0.8204
  mass density: 1167.19 ± 5.9 kg/m3
  viscosity: 13.7 ± 0.4 mPa·s
[2]; w2 = 0.8492
  mass density: 1173.37 ± 6.2 kg/m3
  viscosity: 17.12 ± 0.48 mPa·s
[2]; w2 = 0.8977
  mass density: 1182.34 ± 6.9 kg/m3
  viscosity: 28.3 ± 0.8 mPa·s
[2]; w2 = 0.9376
  mass density: 1192.78 ± 7.5 kg/m3
  viscosity: 44.2 ± 1.3 mPa·s
[2]; w2 = 0.9711
  mass density: 1202.31 ± 8 kg/m3
  viscosity: 68.4 ± 2.2 mPa·s

## CCOC=O [ethyl methanoate] + CCCCn1cc[n+](C)c1.F[B-](F)(F)F
[2]; w2 = 0
  mass density: 928.48 ± 0.52 kg/m3
  viscosity: 0.4 ± 0.1 mPa·s
[2]; w2 = 0.1384
  mass density: 961.2 ± 0.72 kg/m3
  viscosity: 0.6 ± 0.1 mPa·s
[2]; w2 = 0.254
  mass density: 989.2 ± 1 kg/m3
  viscosity: 1 ± 0.1 mPa·s
[2]; w2 = 0.4306
  mass density: 1040.81 ± 1.9 kg/m3
  viscosity: 2 ± 0.1 mPa·s
[2]; w2 = 0.5721
  mass density: 1082.16 ± 3 kg/m3
  viscosity: 3.8 ± 0.1 mPa·s
[2]; w2 = 0.6278
  mass density: 1098.26 ± 3.5 kg/m3
  viscosity: 5.1 ± 0.2 mPa·s
[2]; w2 = 0.6729
  mass density: 1111.27 ± 4 kg/m3
  viscosity: 6.5 ± 0.2 mPa·s
[2]; w2 = 0.7159
  mass density: 1123.69 ± 4.4 kg/m3
  viscosity: 8.5 ± 0.2 mPa·s
[2]; w2 = 0.751
  mass density: 1133.73 ± 4.8 kg/m3
  viscosity: 10.6 ± 0.3 mPa·s
[2]; w2 = 0.7847
  mass density: 1143.34 ± 5.2 kg/m3
  viscosity: 13.3 ± 0.4 mPa·s
[2]; w2 = 0.8199
  mass density: 1153.32 ± 5.7 kg/m3
  viscosity: 16.9 ± 0.5 mPa·s
[2]; w2 = 0.8756
  mass density: 1169.16 ± 6.5 kg/m3
  viscosity: 26.6 ± 0.7 mPa·s
[2]; w2 = 0.9231
  mass density: 1183.78 ± 7.2 kg/m3
  viscosity: 43.7 ± 1.3 mPa·s
[2]; w2 = 0.9647
  mass density: 1198.3 ± 7.9 kg/m3
  viscosity: 69 ± 2.3 mPa·s

## CCCCn1cc[n+](C)c1.F[B-](F)(F)F [1-butyl-3-methylimidazolium tetrafluoroborate] + COC(C)=O
[2]; w1 = 1
  mass density: 1211.05 ± 8.6 kg/m3
  viscosity: 110.3 ± 6.6 mPa·s

## COC(C)=O [methyl ethanoate] + CCCCn1cc[n+](C)c1.F[B-](F)(F)F
[2]; w2 = 0
  mass density: 915.97 ± 0.55 kg/m3
  viscosity: 0.4 ± 0.1 mPa·s
[2]; w2 = 0.1386
  mass density: 964.5 ± 0.72 kg/m3
  viscosity: 0.6 ± 0.1 mPa·s
[2]; w2 = 0.254
  mass density: 996.04 ± 1 kg/m3
  viscosity: 0.9 ± 0.1 mPa·s
[2]; w2 = 0.4326
  mass density: 1045.98 ± 2 kg/m3
  viscosity: 2 ± 0.1 mPa·s
[2]; w2 = 0.5703
  mass density: 1084.58 ± 3 kg/m3
  viscosity: 3.6 ± 0.1 mPa·s
[2]; w2 = 0.622
  mass density: 1098.9 ± 3.5 kg/m3
  viscosity: 4.7 ± 0.1 mPa·s
[2]; w2 = 0.6699
  mass density: 1112.24 ± 4 kg/m3
  viscosity: 6.2 ± 0.2 mPa·s
[2]; w2 = 0.7149
  mass density: 1124.8 ± 4.4 kg/m3
  viscosity: 8.2 ± 0.2 mPa·s
[2]; w2 = 0.7526
  mass density: 1136.01 ± 4.9 kg/m3
  viscosity: 10.2 ± 0.3 mPa·s
[2]; w2 = 0.7875
  mass density: 1144.94 ± 5.3 kg/m3
  viscosity: 13.1 ± 0.4 mPa·s
[2]; w2 = 0.8204
  mass density: 1153.95 ± 5.7 kg/m3
  viscosity: 16.3 ± 0.5 mPa·s
[2]; w2 = 0.8766
  mass density: 1169.55 ± 6.5 kg/m3
  viscosity: 25.8 ± 0.7 mPa·s
[2]; w2 = 0.9243
  mass density: 1182.88 ± 7.2 kg/m3
  viscosity: 40.8 ± 1.2 mPa·s
[2]; w2 = 0.9648
  mass density: 1197.7 ± 7.9 kg/m3
  viscosity: 63.7 ± 1.9 mPa·s
